Source: paper PMC10945555, “Improving Activity of New Arylurea Agents against Multidrug-Resistant and Biofilm-Producing Staphylococcus epidermidis” (ACS Medicinal Chemistry Letters, 2024)
Values after ≈ are worked out from the molar mass of the structure shown. Like-named read-outs stand apart in the source and are kept apart here.

Tests used:
[1] = test system: Staphylococcus aureus ATCC BAA-976; experiment: MIC, broth microdilution, MDR/BPSA reference strain; type: cell-based; details: ATCCBAA976; Staphylococcus aureus ATCC BAA-976; read-out: MIC MDR/BPSA
Source text: These strains included susceptible, multidrug-resistant, and biofilm-producing strains of S. epidermidis and S. aureus (MSSE, MDR/BPSE, and MDR/BPSA, respectively). The cornerstone antibiotic linezolid served as a positive control (Table 1). The impact of structural modifications at the aryloxy fragment and the aromatic moiety bound to the propyl linker on the inhibitory activity was initially investigated. […] Further optimization focused on evaluating the impact of the type of substituent and its position on the arylsulfonamide fragment’s activity.
(§1) 2 Biological assay protocols
(§2) Microbiological tests were carried out under aseptic conditions in a laminar chamber of the 2nd […]
(§3) (BioTectum 1.2, Alchem Poland). The assessment of antimicrobial activity was carried out for final compounds in the form of free bases, soluble in DMSO (Merck, Germany), at the initial […]
(§4) concentration of 1 mg/mL. […]
were provided by Cayman Chemical, USA.
The activity of all newly synthesized compounds was tested in vitro on a panel of selected reference strains from the American Type Culture Collection (ATCC) of Gram-positive […]
(§5) 2.2 Effect of evaluated compounds on planktonic cells
(§6) The susceptibility of three reference bacterial strains (Staphylococcus epidermidis ATCC […]
(§7) Table S1) and 81 clinical MDR S. epidermidis (Table S2) to the tested compounds was assessed by determining the MIC value (Minimal Inhibitory Concentration) by microdilution in a liquid medium in 96-well flat-bottom cell culture plates (Nest Biotechnology Scientific, USA). The antibacterial properties of the compo unds were tested in the concentration range from 50 µg/mL to 0.1 µg/mL by making a series of double dilutions of the compound in liquid Mueller -Hinton II Broth Cation Adjusted (MHB II, BBL TM, USA) according to the European Committee on […]
(§8) Antimicrobial Susceptibility Testing guidelines (EUCAST).2,3 The determinations were performed twice. The MIC50 and MIC90 values were determined for each of the tested

[2] = test system: clinical MDR Staphylococcus epidermidis isolates; experiment: MIC, broth microdilution, 81 clinical MDR strains; type: cell-based; details: Staphylococcus epidermidis
Method: as §1, §2, §3, §4
were provided by Cayman Chemical, USA. […]
The antibacterial activity of selected compounds was also tested on a panel of 81 unrelated, multidrug -resistant clinical strains of Staphylococcus epidermidis from the own collection of the Department of Pharmaceutical Microbiology of the Jagiellonian University Medical College.
as §5, §6, §7, §8

O=S(=O)(NC1CCN(CCC(Oc2ccc(C(F)(F)F)cc2)c2cccs2)CC1)c1cccc(Br)c1 (stereo not shown) [Compound 18]
MIC [1]: 50 µg/mL (≈ 82.8 µM)
MIC ([2]; clinical strain 1 (Table S2), read-out: MIC): 0.8 µg/mL (≈ 1.33 µM)
MIC ([2]; clinical strain 2 (Table S2), read-out: MIC): 3.12 µg/mL (≈ 5.18 µM)
MIC ([2]; clinical strain 3 (Table S2), read-out: MIC): 6.25 µg/mL (≈ 10.4 µM)
MIC ([2]; clinical strain 4 (Table S2), read-out: MIC): 50 µg/mL (≈ 82.8 µM)
MIC ([2]; clinical strain 5 (Table S2), read-out: MIC): 1.6 µg/mL (≈ 2.65 µM)
MIC ([2]; clinical strain 6 (Table S2), read-out: MIC): 12.5 µg/mL (≈ 20.7 µM)
MIC ([2]; clinical strain 7 (Table S2), read-out: MIC): 25 µg/mL (≈ 41.4 µM)
MIC ([2]; clinical strain 8 (Table S2), read-out: MIC): 3.12 µg/mL (≈ 5.18 µM)
MIC ([2]; clinical strain 9 (Table S2), read-out: MIC): 50 µg/mL (≈ 82.8 µM)
MIC ([2]; clinical strain 10 (Table S2), read-out: MIC): 50 µg/mL (≈ 82.8 µM)
MIC ([2]; clinical strain 11 (Table S2), read-out: MIC): 6.25 µg/mL (≈ 10.4 µM)
MIC ([2]; clinical strain 12 (Table S2), read-out: MIC): 12.5 µg/mL (≈ 20.7 µM)
MIC ([2]; clinical strain 13 (Table S2), read-out: MIC): 12.5 µg/mL (≈ 20.7 µM)
MIC ([2]; clinical strain 14 (Table S2), read-out: MIC): 50 µg/mL (≈ 82.8 µM)
MIC ([2]; clinical strain 15 (Table S2), read-out: MIC): 50 µg/mL (≈ 82.8 µM)
MIC ([2]; clinical strain 16 (Table S2), read-out: MIC): 50 µg/mL (≈ 82.8 µM)
MIC ([2]; clinical strain 17 (Table S2), read-out: MIC): 12.5 µg/mL (≈ 20.7 µM)
MIC ([2]; clinical strain 18 (Table S2), read-out: MIC): 50 µg/mL (≈ 82.8 µM)
MIC ([2]; clinical strain 19 (Table S2), read-out: MIC): 6.25 µg/mL (≈ 10.4 µM)
MIC ([2]; clinical strain 20 (Table S2), read-out: MIC): 3.12 µg/mL (≈ 5.18 µM)
MIC ([2]; clinical strain 21 (Table S2), read-out: MIC): 3.12 µg/mL (≈ 5.18 µM)
MIC ([2]; clinical strain 22 (Table S2), read-out: MIC): 3.12 µg/mL (≈ 5.18 µM)
MIC ([2]; clinical strain 23 (Table S2), read-out: MIC): 0.8 µg/mL (≈ 1.33 µM)
MIC ([2]; clinical strain 24 (Table S2), read-out: MIC): 3.12 µg/mL (≈ 5.18 µM)
MIC ([2]; clinical strain 25 (Table S2), read-out: MIC): 6.25 µg/mL (≈ 10.4 µM)
MIC ([2]; clinical strain 26 (Table S2), read-out: MIC): 50 µg/mL (≈ 82.8 µM)
MIC ([2]; clinical strain 27 (Table S2), read-out: MIC): 0.8 µg/mL (≈ 1.33 µM)
MIC ([2]; clinical strain 28 (Table S2), read-out: MIC): 50 µg/mL (≈ 82.8 µM)
MIC ([2]; clinical strain 29 (Table S2), read-out: MIC): 50 µg/mL (≈ 82.8 µM)
MIC ([2]; clinical strain 30 (Table S2), read-out: MIC): 50 µg/mL (≈ 82.8 µM)
MIC ([2]; clinical strain 31 (Table S2), read-out: MIC): 50 µg/mL (≈ 82.8 µM)
MIC ([2]; clinical strain 32 (Table S2), read-out: MIC): 50 µg/mL (≈ 82.8 µM)
MIC ([2]; clinical strain 33 (Table S2), read-out: MIC): 50 µg/mL (≈ 82.8 µM)
MIC ([2]; clinical strain 34 (Table S2), read-out: MIC): 50 µg/mL (≈ 82.8 µM)
MIC ([2]; clinical strain 35 (Table S2), read-out: MIC): 1.6 µg/mL (≈ 2.65 µM)
MIC ([2]; clinical strain 36 (Table S2), read-out: MIC): 50 µg/mL (≈ 82.8 µM)
MIC ([2]; clinical strain 37 (Table S2), read-out: MIC): 50 µg/mL (≈ 82.8 µM)
MIC ([2]; clinical strain 38 (Table S2), read-out: MIC): 50 µg/mL (≈ 82.8 µM)
MIC ([2]; clinical strain 39 (Table S2), read-out: MIC): 50 µg/mL (≈ 82.8 µM)
MIC ([2]; clinical strain 40 (Table S2), read-out: MIC): 50 µg/mL (≈ 82.8 µM)
MIC ([2]; clinical strain 41 (Table S2), read-out: MIC): 6.25 µg/mL (≈ 10.4 µM)
MIC ([2]; clinical strain 42 (Table S2), read-out: MIC): 1.6 µg/mL (≈ 2.65 µM)
MIC ([2]; clinical strain 43 (Table S2), read-out: MIC): 1.6 µg/mL (≈ 2.65 µM)
MIC ([2]; clinical strain 44 (Table S2), read-out: MIC): 50 µg/mL (≈ 82.8 µM)
MIC ([2]; clinical strain 45 (Table S2), read-out: MIC): 50 µg/mL (≈ 82.8 µM)
MIC ([2]; clinical strain 46 (Table S2), read-out: MIC): 50 µg/mL (≈ 82.8 µM)
MIC ([2]; clinical strain 47 (Table S2), read-out: MIC): 50 µg/mL (≈ 82.8 µM)
MIC ([2]; clinical strain 48 (Table S2), read-out: MIC): 50 µg/mL (≈ 82.8 µM)
MIC ([2]; clinical strain 49 (Table S2), read-out: MIC): 50 µg/mL (≈ 82.8 µM)
MIC ([2]; clinical strain 50 (Table S2), read-out: MIC): 50 µg/mL (≈ 82.8 µM)
MIC ([2]; clinical strain 51 (Table S2), read-out: MIC): 50 µg/mL (≈ 82.8 µM)
MIC ([2]; clinical strain 52 (Table S2), read-out: MIC): 50 µg/mL (≈ 82.8 µM)
MIC ([2]; clinical strain 53 (Table S2), read-out: MIC): 50 µg/mL (≈ 82.8 µM)
MIC ([2]; clinical strain 54 (Table S2), read-out: MIC): 50 µg/mL (≈ 82.8 µM)
MIC ([2]; clinical strain 55 (Table S2), read-out: MIC): 50 µg/mL (≈ 82.8 µM)
MIC ([2]; clinical strain 56 (Table S2), read-out: MIC): 50 µg/mL (≈ 82.8 µM)
MIC ([2]; clinical strain 57 (Table S2), read-out: MIC): 50 µg/mL (≈ 82.8 µM)
MIC ([2]; clinical strain 58 (Table S2), read-out: MIC): 50 µg/mL (≈ 82.8 µM)
MIC ([2]; clinical strain 59 (Table S2), read-out: MIC): 50 µg/mL (≈ 82.8 µM)
MIC ([2]; clinical strain 60 (Table S2), read-out: MIC): 50 µg/mL (≈ 82.8 µM)
MIC ([2]; clinical strain 61 (Table S2), read-out: MIC): 50 µg/mL (≈ 82.8 µM)
MIC ([2]; clinical strain 62 (Table S2), read-out: MIC): 50 µg/mL (≈ 82.8 µM)
MIC ([2]; clinical strain 63 (Table S2), read-out: MIC): 50 µg/mL (≈ 82.8 µM)
MIC ([2]; clinical strain 64 (Table S2), read-out: MIC): 50 µg/mL (≈ 82.8 µM)
MIC ([2]; clinical strain 65 (Table S2), read-out: MIC): 6.25 µg/mL (≈ 10.4 µM)
MIC ([2]; clinical strain 66 (Table S2), read-out: MIC): 3.12 µg/mL (≈ 5.18 µM)
MIC ([2]; clinical strain 67 (Table S2), read-out: MIC): 50 µg/mL (≈ 82.8 µM)
MIC ([2]; clinical strain 68 (Table S2), read-out: MIC): 50 µg/mL (≈ 82.8 µM)
MIC ([2]; clinical strain 69 (Table S2), read-out: MIC): 50 µg/mL (≈ 82.8 µM)
MIC ([2]; clinical strain 70 (Table S2), read-out: MIC): 50 µg/mL (≈ 82.8 µM)
MIC ([2]; clinical strain 71 (Table S2), read-out: MIC): 50 µg/mL (≈ 82.8 µM)
MIC ([2]; clinical strain 72 (Table S2), read-out: MIC): 50 µg/mL (≈ 82.8 µM)
MIC ([2]; clinical strain 73 (Table S2), read-out: MIC): 50 µg/mL (≈ 82.8 µM)
MIC ([2]; clinical strain 74 (Table S2), read-out: MIC): 50 µg/mL (≈ 82.8 µM)
MIC ([2]; clinical strain 75 (Table S2), read-out: MIC): 50 µg/mL (≈ 82.8 µM)
MIC ([2]; clinical strain 76 (Table S2), read-out: MIC): 50 µg/mL (≈ 82.8 µM)
MIC ([2]; clinical strain 77 (Table S2), read-out: MIC): 0.8 µg/mL (≈ 1.33 µM)
MIC ([2]; clinical strain 78 (Table S2), read-out: MIC): 50 µg/mL (≈ 82.8 µM)
MIC ([2]; clinical strain 79 (Table S2), read-out: MIC): 50 µg/mL (≈ 82.8 µM)
MIC ([2]; clinical strain 80 (Table S2), read-out: MIC): 50 µg/mL (≈ 82.8 µM)
MIC ([2]; clinical strain 81 (Table S2), read-out: MIC): 3.12 µg/mL (≈ 5.18 µM)
MIC ([2]; mean of MIC values against clinical MDR-SE isolates, read-out: mean MIC): 35.2 µg/mL (≈ 58.3 µM)
MIC50 ([2]; 81 clinical strains, concentration inhibiting growth of 50% clinical isolates): 50 µg/mL (≈ 82.8 µM)
MIC90 ([2]; 81 clinical strains, concentration inhibiting growth of 90% of clinical isolates): 50 µg/mL (≈ 82.8 µM)
